Values after ≈ are worked out from the molar mass of the structure shown. Active and inactive are the calls of the source. The rule behind the calls is not given here.
What was measured:
[1] = test system: Escherichia coli; test: Antibacterial activity against Escherichia coli ATCC 25922 incubated for 24 hrs by CLSI protocol based broth microdilution method; assay type: functional; details: ATCC 25922, 24 h
[2] = test system: Bacillus subtilis; test: Antibacterial activity against Bacillus subtilis ATCC 9372 incubated for 24 hrs by CLSI protocol based broth microdilution method; assay type: functional; details: ATCC 9372, 24 h
[3] = test system: Staphylococcus aureus; test: Antibacterial activity against penicillin-resistant Staphylococcus aureus clinical isolate incubated for 24 hrs by CLSI protocol based broth microdilution method; assay type: functional
[4] = test system: Bacillus pumilus; test: Antibacterial activity against Bacillus pumilus CMCC63202 incubated for 24 hrs by CLSI protocol based broth microdilution method; assay type: functional; details: CMCC63202, 24 h
[5] = test system: Staphylococcus aureus; test: Antibacterial activity against Staphylococcus aureus clinical isolate incubated for 24 hrs by CLSI protocol based broth microdilution method; assay type: functional
[6] = test system: Staphylococcus aureus; test: Antibacterial activity against Staphylococcus aureus ATCC 25923 incubated for 24 hrs by CLSI protocol based broth microdilution method; assay type: functional; details: ATCC 25923, 24 h
[7] = test system: Pseudomonas aeruginosa; test: Antibacterial activity against Pseudomonas aeruginosa ATCC 27853 incubated for 24 hrs by CLSI protocol based broth microdilution method; assay type: functional; details: ATCC 27853, 24 h
[8] = test system: Staphylococcus aureus; test: Antibacterial activity against methicillin-resistant Staphylococcus aureus ATCC 43300 incubated for 24 hrs by CLSI protocol based broth microdilution method; assay type: functional; details: ATCC 43300, 24 h
[9] = Half life in mouse liver microsomes in presence of NADPH by RP-HPLC analysis; assay type: ADME, Microsome
[10] = test system: Staphylococcus aureus; test: Bactericidal activity against methicillin-resistant Staphylococcus aureus ATCC 43300 assessed as log reduction in viable bacterial count at 1 to 8 times MIC incubated for 24 hrs by time-kill curve assay; assay type: functional
[11] = test system: Staphylococcus aureus; test: Ratio of MBC for Staphylococcus aureus ATCC 25923 to MIC for Staphylococcus aureus ATCC 25923; assay type: functional
[12] = test system: Staphylococcus aureus; test: Bactericidal activity against penicillin-resistant Staphylococcus aureus clinical isolate assessed as 3 log reduction in number of colony forming units incubated for 24 hrs followed by aliquots transfer to tryptic soy agar and grown for 24 hrs; assay type: functional
[13] = Half life in mouse plasma at 25 ug/ml incubated for 24 hrs by RP-HPLC analysis; assay type: ADME, cell-free
[14] = test system: Bacillus pumilus; test: Effect on bacterial cell morphology in Bacillus pumilus CMCC63202 assessed as increase in bacterial cell length at 0.5 times MIC incubated for 18 hrs by phase-contrast optical microscopic analysis; assay type: functional, organism-based
[15] = target: T1, Cell division protein FtsZ (Bacillus subtilis (strain 168)) (UniProt P17865); test: Induction of Bacillus subtilis FtsZ polymerization in presence of GTP measured over 30 mins by microtiter plate-based light-scattering assay
T1 sequence (whole entry): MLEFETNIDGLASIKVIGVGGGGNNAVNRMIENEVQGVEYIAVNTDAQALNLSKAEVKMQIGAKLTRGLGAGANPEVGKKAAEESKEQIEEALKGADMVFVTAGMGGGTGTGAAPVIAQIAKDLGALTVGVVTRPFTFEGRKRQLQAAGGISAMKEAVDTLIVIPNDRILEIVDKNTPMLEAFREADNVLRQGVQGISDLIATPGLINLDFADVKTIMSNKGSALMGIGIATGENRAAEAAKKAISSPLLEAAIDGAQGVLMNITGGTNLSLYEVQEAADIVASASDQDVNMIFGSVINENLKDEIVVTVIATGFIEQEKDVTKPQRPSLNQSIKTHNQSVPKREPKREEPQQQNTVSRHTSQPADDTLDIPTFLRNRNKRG

[16] = test system: HeLa; test: Growth inhibition of human HeLa cells incubated for 48 hrs by MTT assay; assay type: cell-based
[17] = Stability in mouse plasma assessed as degradation of compound at 25 ug/ml incubated for 24 hrs by RP-HPLC analysis; assay type: ADME, cell-free
[18] = test system: Staphylococcus aureus; test: Bactericidal activity against Staphylococcus aureus ATCC 25923 assessed as 3 log reduction in number of colony forming units incubated for 24 hrs followed by aliquots transfer to tryptic soy agar and grown for 24 hrs; assay type: functional; details: ATCC 25923, 24 h
[19] = test system: Staphylococcus aureus; test: Bactericidal activity against Staphylococcus aureus ATCC 43300 assessed as 3 log reduction in number of colony forming units incubated for 24 hrs followed by aliquots transfer to tryptic soy agar and grown for 24 hrs; assay type: functional; details: ATCC 43300, 24 h
[20] = Clearance in mouse liver microsomes incubated for 20 mins in presence of NADPH by RP-HPLC analysis; assay type: ADME, Microsome
[21] = target: T1, Cell division protein FtsZ (Bacillus subtilis (strain 168)); test: Induction of Bacillus subtilis FtsZ polymerization in presence of GTP at 5 ug/ml measured over 30 mins by microtiter plate-based light-scattering assay

SMILES	MIC [1] [µg/mL]	MIC [2] [µg/mL]	MIC [3] [µg/mL]	MIC [4] [µg/mL]	MIC [5] [µg/mL]	MIC [6] [µg/mL]	MIC [7] [µg/mL]	MIC [8] [µg/mL]	other results
CCc1ccc(-n2nc(COc3ccc(F)c(C(N)=O)c3F)oc2=O)cc1	> 64	0.5 (≈ 1.33 µM)	4 (≈ 10.7 µM)	4 (≈ 10.7 µM)	2 (≈ 5.33 µM)	2 (≈ 5.33 µM)	> 64	2 (≈ 5.33 µM)	–
Cc1ccc(-n2nc(COc3ccc(F)c(C(N)=O)c3F)oc2=O)c(C)c1	> 64	2 (≈ 5.33 µM)	64 (≈ 171 µM)	2 (≈ 5.33 µM)	32 (≈ 85.3 µM)	32 (≈ 85.3 µM)	> 64	16 (≈ 42.6 µM)	–
NC(=O)c1c(F)ccc(OCc2nn(-c3ccc(Cl)cc3Cl)c(=O)o2)c1F	> 64	1 (≈ 2.4 µM)	4 (≈ 9.61 µM)	0.5 (≈ 1.2 µM)	4 (≈ 9.61 µM)	4 (≈ 9.61 µM)	> 64	2 (≈ 4.81 µM)	–
CC(C)(C)c1ccc(-c2nn(COc3ccc(F)c(C(N)=O)c3F)c(=O)o2)cc1	> 64	8 (≈ 19.8 µM)	> 64	32 (≈ 79.3 µM)	> 64	> 64	> 64	> 64	–
NC(=O)c1c(F)ccc(OCc2nn(-c3ccc(Br)cc3)c(=O)o2)c1F	> 64	0.125 (≈ 0.293 µM)	1 (≈ 2.35 µM)	1 (≈ 2.35 µM)	0.5 (≈ 1.17 µM)	1 (≈ 2.35 µM)	> 64	1 (≈ 2.35 µM)	half-life [9]: > 1.5 h; Activity [10]: 4 log10CFU/ml; Ratio [11]: 1; MBC [12]: 1 µg/mL (≈ 2.35 µM); half-life at 25 ug/ml [13]: 2.5 h; Activity [14]: Active; Activity [15]: Dose-dependent effect; IC50 [16]: > 64 µg/mL; Stability [17]: Unstable; MBC [18]: 1 µg/mL (≈ 2.35 µM); MBC [19]: 1 µg/mL (≈ 2.35 µM); CLH [20]: 24.3%
COc1cccc(-n2nc(COc3ccc(F)c(C(N)=O)c3F)oc2=O)c1	> 64	16 (≈ 42.4 µM)	> 64	> 64	64 (≈ 170 µM)	64 (≈ 170 µM)	> 64	> 64	–
CCn1c(COc2ccc(F)c(C(N)=O)c2F)nn(-c2ccc(Br)cc2)c1=O	> 64	> 64	> 64	> 64	–	> 64	> 64	> 64	Activity [21]: inactive
NC(=O)c1c(F)ccc(OCc2nn(-c3ccc(Cl)c(Cl)c3)c(=O)o2)c1F	> 64	4 (≈ 9.61 µM)	> 64	4 (≈ 9.61 µM)	64 (≈ 154 µM)	> 64	> 64	64 (≈ 154 µM)	–
Cc1ccc(-n2nc(COc3ccc(F)c(C(N)=O)c3F)oc2=O)cc1	> 64	0.5 (≈ 1.38 µM)	4 (≈ 11.1 µM)	8 (≈ 22.1 µM)	4 (≈ 11.1 µM)	4 (≈ 11.1 µM)	> 64	4 (≈ 11.1 µM)	–
CCCCc1ccc(-n2nc(COc3ccc(F)c(C(N)=O)c3F)oc2=O)cc1	> 64	0.015 (≈ 0.0372 µM)	> 64	0.5 (≈ 1.24 µM)	2 (≈ 4.96 µM)	> 64	> 64	64 (≈ 159 µM)	–
Cc1ccc(-c2nn(COc3ccc(F)c(C(N)=O)c3F)c(=O)o2)cc1	> 64	> 64	> 64	> 64	> 64	> 64	> 64	> 64	–
